# Patent US20110097410A1, “FORMULATIONS OF PX COMPOUNDS” (priority 2007, published 2011)
# Tests used:
# [1] = particle size after high pressure homogenization (photon correlation spectroscopy); assay type: physicochemical
# Method: PX-18 powder was dispersed in a 1% Tween 80 carrier. The composition of the formulation was 1% PX-18, 1% Tween 80 and 98% water. The obtained macrosuspension was passed through a micron LAB 40 homogenizer (APV Homogenizer Systems, Unna/Germany) at 1500 bar, applying one homogenization cycle. The particle size was determined by photon correlation spectroscopy (PCS, Malvern Zetasizer Nano ZS, Malvern Instruments, United Kingdom), The mean particle size (z-average) was 745 nm.
# A second macrosuspension of PX-18 was prepared as described above, and subsequently homogenized. The homogenization parameters were 1500 bar and 20 homogenization cycles.
# A suspension of 1% PX-13 was prepared in an aqueous preparation of 2% Planta Care 2000. After homogenization applying 20 cycles at 1500 bar, a PCS mean diameter of 33 nm was obtained.
# [2] = solubility in aqueous solutions; assay type: physicochemical
# Source text: Despite the apparent efficacy of PX compounds in treating various disease conditions, their use is limited due to a problem of extremely low solubility. […] This very poor solubility generally leads to insufficient bioavailability alter administration, likely because the dissolution velocity is too slow.
# [3] = dissolution velocity: amount suspended in water after 5 minutes (gravimetry); assay type: physicochemical
# Method: 1 ml of macrosuspension (PX powder, dispersed in water) and 1 ml of PX-18 nanosuspension (diameter 40 nm) was added to 9 ml of de-mineralised water and stirred with a magnetic stirrer for 5 minutes. Each 10 ml sample was then filtered to remove non-suspended PX-18, and the amount of suspended PX-18 was determined by gravimetry. While the concentration of PX-18 in both suspensions was 1% (w/w), about 91% of the nanoparticles had become suspended within 5 minutes compared to just 8.4% of the macrosuspension.
# To farther assess the importance of nanoparticle size on the dissolution velocity of PX-18, the dissolution velocity of PX-18 nanoparticles with a size of 40 nm was compared to that of PX-18 nanoparticles with a size of 200 nm. The analysis was performed as described above. After 5 minutes, about 91% of the 40 nm particles were suspended, whereas die larger 200 nm nanoparticles were suspended to about 41%.
# [4] = test system: ischemia-reperfusion in the heart; test: infarct size after regional ischemia/reperfusion in the heart; assay type: in vivo, Rabbits; settings: PX-18 60 mg/kg ip; P<0.05
# Method: The protective effect of PX-18 during ischemia-reperfusion in the heart was assessed. Since opening of mitochondrial KATP channels are essential components of ischemic tolerance induced by preconditioning in heart, the role of these channels in PX-18-induced cardioprotection was also examined. Briefly, 180 mg of PX-18 was put into a small homogenizing tube containing 3 ml of ethylene glycol in a homogenizing tube and warming it to about 50° C. Several bursts of sonication (about 10 seconds) were applied in a nitrogen gas bath to minimize oxidation, followed by homogenization. This procedure was repeated 4-5 times until a uniform cloudy proportion that was easily injected through a needle was obtained. Procedures of this type generate PX-18 particles of a size in the micrometer range. Rabbits were treated with the sonicated preparation, of PX-18 (60 mg/kg ip). 30 minutes later the hearts were subjected to 30 minutes of regional ischemia followed by 3 hours of reperfusion. Mitochondrial KATP channel blocker 5-hydroxydecanoate (5-HD, 5 mg/kg iv) was given 10 min before ischemia/reperfusion. Infarct size was measured by computer morphometry of tetrazolium stained sections.
# [5] = test system: hippocampus neurons after ischemia; test: common carotid artery occlusion, alive hippocampal neurons; assay type: in vivo, Gerbils; settings: 1% nanoparticle formulation, 40-50 nm, subcutaneously 5 min, 24 hr and 48 hr after ischemia, day 4
# Method: Common carotid arteries of Gerbils (6 gerbils per group) were occluded for 5 minutes to induce ischemia. Thereafter, a nanoparticle formulation of PX-18 (1% formulation, particles size of 40-50 nanometers) was administered subcutaneously 5 min, 24 hr and 48 hr after ischemia. After surgery, the gerbils were returned to their cages where, upon awakening, they were able to resume their normal locomotor functions. They were sacrificed on day 4. The hippocampus was sectioned and the number of alive neurons was assessed. In the ischemic animals, sPLA2 unregulated within 24 hr after ischemia and most neurons were dead by 4 days. PX-18 reduced neuronal damage in a dose dependent manner, providing approximately 30% protection at a dose of 30 mg/kg and 45% protection at a dose of 60 mg/kg, […]
# [6] = test system: ischemia-induced impaired vasodilation; test: ischemia-induced impaired vasodilation; assay type: in vivo, newborn piglets; settings: for effect on impaired hypercapnic vasodilation after global ischemia: FIG. 11
# Method: (§1) The ability of PX-18 nanoparticles to influence 1) basal and induced arterial dilation; and 2) ischemia-induced impaired vasodilation (due to bradykinin, N-methyl-D-aspartic acid (NMDA) and ischemia-reperfusion) was studied in newborn piglets (1-2-day old, n=44). The piglets were anesthetized, ventilated, and equipped with arterial and venous catheters and a closed cranial window. Xanoparticulate PX-18 was administered iv at a concentration of 6 mg/kg.
# The protocol for testing the effect of ischemia-induced impaired vasodilation is preseted in FIG. 8. […] In addition, intravenous but not topical treatment with PX-18 restored impaired hypercapnic vasodilation after global ischemia (FIG. 11).
# solubility in solvents = assay type: physicochemical
# Source text: PX-18, a specific inhibitor of sPLA2, is a fatty moiety feat is soluble in methylene chloride, chloroform and ethyl acetate. […] Its solubility in water is typically very low.
# pial arterioles = test: basal and induced pial arteriolar dilation and hemodynamics; assay type: in vivo, newborn piglets
# Method: as §1
# Rabbits = settings: rabbit, in vivo, iv
smiles,measurement,setting,value
CCCCCCCC/C=C\CCCCCCCC(=O)OCC(COC(=O)CCCCCCC/C=C\CCCCCCCC)(COC(=O)CCCCCCC/C=C\CCCCCCCC)NCCS(=O)(=O)O [PX-13],PCS mean diameter,"[1]; 1% PX-13 in aqueous 2% Planta Care 2000, 20 cycles at 1500 bar",33 nm
same,"particle size (PCS, z-average)",[1]; one homogenization cycle at 1500 bar,400-900 nm
same,solubility in aqueous solutions,[2],about 5 μg/ml
CCCCCCCC/C=C\CCCCCCCC(=O)OCCN(CCOC(=O)CCCCCCC/C=C\CCCCCCCC)CCS(=O)(=O)O [PX-18],amount suspended,"[3]; macrosuspension (powder, μm-sized particles), 1% (w/w), 1 ml in 9 ml de-mineralised water, stirred 5 minutes",8.4%
same,amount suspended,"[3]; nanoparticles with a size of 200 nm, after 5 minutes",about 41%
same,reduction of infarct size versus vehicle,[4],43%
same,solubility in aqueous solutions,[2],approximately 24 μg/ml
same,protection against neuronal damage,[5]; 30 mg/kg,approximately 30%
same,protection against neuronal damage,[5]; 60 mg/kg,~45%
same,effect on impaired hypercapnic vasodilation after global ischemia,[6]; intravenous treatment,restored
same,effect on ischemia-induced impaired vasodilation caused by N-methyl-D-aspartic acid,"[6]; iv administered, NMDA 10^−4M, FIG. 10",counteracts
same,effect on ischemia-induced impaired vasodilation caused by bradykinin,"[6]; iv administered, bradykinin 10^−8M, FIG. 9",counteracts
same,effect on impaired hypercapnic vasodilation after global ischemia,[6]; topical treatment,not topical
same,solubility,solubility in solvents; in acetone and methanol,insoluble
same,solubility,solubility in solvents; in dimethylsulfoxide (DMSO),limited solubility
same,solubility,"solubility in solvents; in methylene chloride, chloroform and ethyl acetate",soluble
same,solubility,solubility in solvents; in water,very low
same,time to normalization of MABP and pial arteriole diameter,"pial arterioles; after iv bolus, 6 mg/kg",4 to 6 min
same,effect on basal and hypercapnia-induced (endothelium and COX dependent) pial arterial dilation,"pial arterioles; intravenous, FIG. 6",did not influence
same,pial arteriole dilation,"pial arterioles; iv bolus of nanoparticle formulation, 6 mg/kg, transient",32±1%
same,mean arterial blood pressure (MABP) after bolus,"pial arterioles; iv bolus of nanoparticle formulation, 6 mg/kg, transient decrease from 62±7 mmHg",40±5 mmHg
same,pial arteriole dilation (Mean±SEM),"pial arterioles; nanoparticle formulation, 10^−4M, topically onto the brain surface",16±5%
same,effect on PACAP induced (non-endothelium but COX-dependent) pial arteriolar dilation,"pial arterioles; topical, FIG. 7",impaired
same,survival,Rabbits,did not survive
